From the supplement of paper PMC10307832

Legend:
Experiment in all cases: relative viability (nuclei count vs DMSO), 5 days (fraction); higher = more cells survive
Trametinib + Crizotinib = compound: CC(=O)Nc1cccc(-n2c(=O)n(C3CC3)c(=O)c3c(Nc4ccc(I)cc4F)n(C)c(=O)c(C)c32)c1 [Trametinib] + C[C@@H](Oc1cc(-c2cnn(C3CCNCC3)c2)cnc1N)c1c(Cl)ccc(F)c1Cl [Crizotinib] (partner 1 µM)
Outline: (§1)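 Each reported value is a median over duplicate plates. It expresses relative viability: treated-well nuclei count divided by vehicle-well nuclei count. Lung cancer cell lines in 1536-well plates were dosed by pin tool a day after seeding, alone with one drug or with a fixed anchor-drug dose plus five library-drug doses (not always all listed) in √10 steps, and nuclei were counted after 5 days.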

Trametinib + Alpelisib = compound: CC(=O)Nc1cccc(-n2c(=O)n(C3CC3)c(=O)c3c(Nc4ccc(I)cc4F)n(C)c(=O)c(C)c32)c1 [Trametinib] + Cc1nc(NC(=O)N2CCC[C@H]2C(N)=O)sc1-c1ccnc(C(C)(C)C(F)(F)F)c1 [Alpelisib] (partner 2 µM)
Outline: as §1

[1] = compound: CN1C=C(C2=CC=CC=C21)/C=C\3/C4=C(C=CC=N4)NC3=O + CC(=O)c1c(C)c2cnc(Nc3ccc(N4CCNCC4)cn3)nc2n(C2CCCC2)c1=O [Palbociclib] (partner 0.5 µM)
Outline: as §1

Trametinib + Dasatinib = compound: CC(=O)Nc1cccc(-n2c(=O)n(C3CC3)c(=O)c3c(Nc4ccc(I)cc4F)n(C)c(=O)c(C)c32)c1 [Trametinib] + Cc1nc(Nc2ncc(C(=O)Nc3c(C)cccc3Cl)s2)cc(N2CCN(CCO)CC2)n1 [Dasatinib] (partner 0.075 µM)
Outline: as §1

| Cell Line | relative viability (Trametinib + Crizotinib; first compound 0.0025 µM) | relative viability (Trametinib + Crizotinib; first compound 0.007906 µM) | relative viability (Trametinib + Crizotinib; first compound 0.025 µM) | relative viability (Trametinib + Crizotinib; first compound 0.07906 µM) | relative viability (Trametinib + Crizotinib; first compound 0.25 µM) | relative viability (Trametinib + Alpelisib; first compound 0.0025 µM) | relative viability (Trametinib + Alpelisib; first compound 0.007906 µM) | relative viability (Trametinib + Alpelisib; first compound 0.025 µM) | relative viability (Trametinib + Alpelisib; first compound 0.07906 µM) | relative viability (Trametinib + Alpelisib; first compound 0.25 µM) | relative viability ([1]; first compound 0.02 µM) | relative viability ([1]; first compound 0.06325 µM) | relative viability ([1]; first compound 0.2 µM) | relative viability ([1]; first compound 0.6325 µM) | relative viability ([1]; first compound 2 µM) | relative viability (Trametinib + Dasatinib; first compound 0.0025 µM) | relative viability (Trametinib + Dasatinib; first compound 0.007906 µM) | relative viability (Trametinib + Dasatinib; first compound 0.025 µM) | relative viability (Trametinib + Dasatinib; first compound 0.07906 µM) | relative viability (Trametinib + Dasatinib; first compound 0.25 µM) |
| --- | --- | --- | --- | --- | --- | --- | --- | --- | --- | --- | --- | --- | --- | --- | --- | --- | --- | --- | --- | --- |
| 201T | 1.05 | 1.01 | 0.859 | 0.872 | 0.799 | 1.02 | 0.914 | 0.866 | 0.893 | 0.765 | 0.321 | 0.359 | 0.377 | 0.35 | 0.323 | 0.555 | 0.59 | 0.579 | 0.521 | 0.484 |
| A549 | 0.64 | 0.44 | 0.394 | 0.181 | 0.074 | 0.6 | 0.37 | 0.206 | 0.158 | 0.0675 |  |  |  |  |  |  |  |  |  |  |
| A-427 | 0.924 | 0.757 | 0.659 | 0.658 | 0.502 | 0.91 | 1.02 | 0.437 | 0.607 | 0.269 | 0.577 | 0.492 |  | 0.514 | 0.572 | 0.75 | 0.397 | 0.178 | 0.262 | 0.171 |
| ABC-1 | 0.99 | 1.03 | 0.972 | 1.07 | 0.634 | 0.729 | 0.703 | 0.564 | 0.583 | 0.554 | 0.52 | 0.76 | 0.789 | 0.593 | 0.738 | 0.539 | 0.467 | 0.365 | 0.384 | 0.371 |
| BEN | 0.794 | 0.825 |  | 0.717 | 0.81 | 0.951 | 0.939 |  | 0.763 | 0.888 | 0.453 | 0.409 | 0.465 | 0.48 | 0.49 | 0.304 | 0.296 | 0.228 | 0.269 | 0.319 |
| CAL-12T | 0.651 | 0.853 | 0.434 | 0.367 | 0.213 | 1.14 | 0.79 | 0.452 | 0.45 | 0.34 | 0.501 | 0.411 | 0.411 | 0.419 | 0.499 | 0.232 | 0.219 | 0.268 | 0.165 | 0.104 |
| COR-L23 | 0.66 | 0.682 | 0.665 | 0.425 | 0.337 | 0.766 | 0.723 | 0.668 | 0.436 | 0.241 | 0.314 | 0.292 | 0.28 | 0.237 | 0.299 | 0.446 | 0.449 | 0.502 | 0.484 | 0.246 |
| COR-L 105 | 0.729 | 0.605 | 0.374 | 0.329 | 0.285 | 0.808 | 1.03 | 0.352 | 0.419 | 0.389 | 0.428 | 0.418 | 0.419 | 0.373 | 0.497 | 0.319 | 0.289 | 0.194 | 0.153 | 0.17 |
| Calu-6 | 0.737 | 0.557 | 0.398 | 0.168 | 0.107 | 0.974 | 0.414 | 0.231 | 0.156 | 0.16 |  |  |  |  |  |  |  |  |  |  |
| ChaGo-K-1 | 1.13 | 1.07 | 1.1 | 1.01 | 0.761 |  |  |  |  |  | 0.922 | 0.936 | 0.853 | 0.89 | 0.909 | 0.586 | 0.605 | 0.567 | 0.475 | 0.48 |
| EBC-1 | 0.196 | 0.181 | 0.187 | 0.159 | 0.162 | 0.901 | 0.65 | 0.313 | 0.21 | 0.206 |  |  |  |  |  |  |  |  |  |  |
| EKVX | 0.779 | 0.778 | 0.765 | 0.564 | 0.4 | 0.832 | 0.638 | 0.629 | 0.444 | 0.343 | 0.323 |  |  | 0.273 | 0.732 | 0.398 | 0.492 | 0.31 | 0.226 | 0.221 |
| EMC-BAC-2 | 0.755 | 0.782 | 0.765 | 0.732 | 0.482 | 0.645 | 0.641 | 0.562 | 0.568 | 0.497 | 0.471 | 0.513 | 0.504 | 0.521 | 0.535 | 0.352 | 0.407 | 0.419 | 0.443 | 0.365 |
| EPLC-272H | 0.825 | 0.672 | 0.538 | 0.599 | 0.377 | 0.721 | 0.539 | 0.438 | 0.438 | 0.346 | 0.331 | 0.271 |  | 0.336 | 0.274 | 0.275 | 0.231 | 0.215 | 0.138 | 0.12 |
| H3255 | 0.845 | 0.931 | 0.799 | 0.715 | 0.48 | 0.684 | 0.566 | 0.503 | 0.41 | 0.317 | 0.33 | 0.327 | 0.309 | 0.317 | 0.296 | 0.512 | 0.334 | 0.288 | 0.238 | 0.346 |
| HARA | 0.9 | 0.907 | 0.807 | 0.638 | 0.336 | 0.758 | 0.657 | 0.44 | 0.498 | 0.241 | 0.257 | 0.297 | 0.192 | 0.257 | 0.227 | 0.225 | 0.275 | 0.367 | 0.18 | 0.185 |
| HCC-15 | 0.658 | 0.53 | 0.415 | 0.259 | 0.187 | 0.645 | 0.436 | 0.275 | 0.204 | 0.148 | 0.708 | 0.733 | 0.724 | 0.685 | 0.746 | 0.287 | 0.214 | 0.163 | 0.135 | 0.121 |
| HCC-44 | 0.853 | 0.916 | 0.763 | 0.728 | 0.526 | 0.774 | 0.618 | 0.614 | 0.528 | 0.187 | 0.902 | 0.959 | 0.956 | 0.934 | 0.913 |  |  |  |  |  |
